Data reported in patent publication US20230047905A1, “COMPOUNDS AND COMPOSITIONS FOR TREATING CONDITIONS ASSOCIATED WITH STING ACTIVITY” (IFM Due, Inc., priority 2018, published 2023).

system: Human STING; assay: STING reporter assay (luciferase) in THP1-Dual KO-IFNAR2 cells activated with 2'3'cGAMP; assay type: cell-based; settings: 15 μM 2'3'cGAMP, 24h, class symbols
Experimental: STING Pathway Modulation by the Compounds Described Herein was Measured Using THP1-Dual™ Cells (KO-IFNAR2).
THP1-Dual™ KO-IFNAR2 Cells (obtained from invivogen) were maintained in RPMI, 10% FCS, 5 ml P/S, 2 mM L-glut, 10 mM Hepes, and 1 mM sodium pyruvate. Compounds were spotted in empty 384 well tissue culture plates (Greiner 781182) by Echo for a final concentration of 0.0017-100 μM. Cells were plated into the TC plates at […], 2×10E6 cells/mL. For activation with STING ligand, 2′3′cGAMP (MW 718.38, obtained from Invivogen), was prepared in Optimem media.
The following solutions were prepared for each 1×384 plate: • Solution A: 2 mL Optimem with one of the following stimuli: • 60 uL of 10 mM 2′3′cGAMP ->150 μM stock • Solution B: 2 mL Optimem with 60 μL Lipofectamine 2000->Incubate 5 min at RT
2 mL of solution A and 2 ml Solution B was mixed and incubated for 20 min at room temperature (RT). 20 μL of transfection solution (A+B) was added on top of the plated cells, with a final 2′3′cGAMP concentration of 15 μM. The plates were then centrifuged immediately at 340 g for 1 minute, after which they were incubated at 37° C., 5% CO2, >98% humidity for 24h. Luciferase reporter activity was then measured. EC50 values were calculated by using standard methods known in the art.
Luciferase reporter assay: 10 μL of supernatant from the assay was transferred to white 384-plate with flat bottom and squared wells. One pouch of QUANTI-Luc™ Plus was dissolved in 25 mL of water. 100 μL of QLC Stabilizer per 25 mL of QUANTI-Luc™ Plus solution was added. 50 μL of QUANTI-Luc™ Plus/QLC solution per well was then added. Luminescence was measured on a Platereader (e.g., Spectramax I3X (Molecular Devices GF3637001)).
Luciferase reporter activity was then measured. EC50 or IC50 values were calculated by using standard methods known in the art.

IC50 [µM]	Compound
0.2 to 1	NS(=O)(=Nc1c[nH]c2cc(F)c(F)cc12)c1ccc(C(F)(F)F)cc1 (racemic) [Compound 2a]
1 to 5	NS(=O)(=Nc1c[nH]c2cc(F)c(F)cc12)c1ccc(C(F)(F)F)cc1 (racemic) [Compound 2b]
5 to 100	Cc1ccccc1S(N)(=O)=Nc1c[nH]c2ccccc12 (racemic) [Compound 110a]
1 to 5	Cc1ccccc1S(N)(=O)=Nc1c[nH]c2ccccc12 (racemic) [Compound 110b]
1 to 5	Cc1ccc(S(N)(=O)=Nc2c[nH]c3ccccc23)cc1 (racemic) [Compound 111a]
5 to 100	Cc1ccc(S(N)(=O)=Nc2c[nH]c3ccccc23)cc1 (racemic) [Compound 111b]

same assay, conditions: Homo sapiens, THP1-Dual, 24 h, 15 μM 2'3'cGAMP, class symbols

Compound	IC50 [µM]
CCCCc1ccc(S(N)(=O)=Nc2c[nH]c3ncc(F)cc23)cc1 (racemic) [Compound 116]	5 to 100
N[S@](=O)(=Nc1c[nH]c2ccccc12)c1ccc(C(F)(F)F)cc1 (single isomer, unassigned) [Compound 1a, (S or R)—N-(1H-indol-3-yl)-4-(trifluoromethyl)benzenesulfonimidamide]	1 to 5
N[S@@](=O)(=Nc1c[nH]c2ccccc12)c1ccc(C(F)(F)F)cc1 (single isomer, unassigned) [Compound 1b, (R or S)—N-(1H-indol-3-yl)-4-(trifluoromethyl)benzenesulfonimidamide]	0.2 to 1
NS(=O)(=Nc1c[nH]c2ccccc12)c1ccc(C(F)(F)F)cc1 (stereo not drawn) [Compound 1, N′-(1H-indol-3-yl)-4-(trifluoromethyl)benzenesulfonimidamide]	0.2 to 1
NS(=O)(=Nc1c[nH]c2cc(F)c(F)cc12)c1ccc(C(F)(F)F)cc1 (stereo not drawn) [Compound 2]	1 to 5
CN(C)S(=O)(=Nc1c[nH]c2ccccc12)c1ccc(C(F)(F)F)cc1 (stereo not drawn) [Compound 36, N′-(1H-indol-3-yl)-N,N-dimethyl-4-(trifluoromethyl)benzenesulfonimidamide]	5 to 100
CCCCc1ccc(S(=N)(=O)Nc2ccc3[nH]ccc3c2)cc1 (stereo not drawn) [Compound 53]	5 to 100
CCCCc1ccc(S(=N)(=O)Nc2ccc3cc[nH]c3c2)cc1 (stereo not drawn) [Compound 101]	5 to 100
CC(C)OC(=O)NS(=O)(=Nc1c[nH]c2ccccc12)c1ccc(C(F)(F)F)cc1 (stereo not drawn) [Compound 102]	5 to 100
CCOC(=O)NS(=O)(=Nc1c[nH]c2ccccc12)c1ccc(C(F)(F)F)cc1 (stereo not drawn) [Compound 103]	5 to 100
CS(=O)(=O)n1cc(N=S(N)(=O)c2ccc(C(F)(F)F)cc2)c2ccccc21 (stereo not drawn) [Compound 104]	5 to 100
CNS(=O)(=Nc1cn(C)c2ccccc12)c1ccc(C(F)(F)F)cc1 (stereo not drawn) [Compound 105, N-methyl-N′-(1-methyl-1H-indol-3-yl)-4-(trifluoromethyl)benzenesulfonimidamide]	5 to 100
Cc1cccc(S(N)(=O)=Nc2c[nH]c3ccccc23)c1 (stereo not drawn) [Compound 106]	5 to 100
COC(=O)NS(=O)(=Nc1c[nH]c2ccccc12)c1ccc(C(F)(F)F)cc1 (stereo not drawn) [Compound 107, methyl (N-(1H-indol-3-yl)-4-(trifluoromethyl)phenylsulfonimidoyl)carbamate]	5 to 100
NS(=O)(=Nc1c[nH]c2ccccc12)c1ccc(F)cc1 (stereo not drawn) [Compound 108]	5 to 100
NS(=O)(=Nc1c[nH]c2ccccc12)c1ccc(Cl)cc1 (stereo not drawn) [Compound 109]	1 to 5
Cc1ccccc1S(N)(=O)=Nc1c[nH]c2ccccc12 (stereo not drawn) [Compound 110]	5 to 100
Cc1ccc(S(N)(=O)=Nc2c[nH]c3ccccc23)cc1 (stereo not drawn) [Compound 111]	5 to 100
CNS(=O)(=Nc1c[nH]c2ccccc12)c1ccc(C(F)(F)F)cc1 (stereo not drawn) [Compound 112, N′-(1H-indol-3-yl)-N-methyl-4-(trifluoromethyl)benzenesulfonimidamide]	5 to 100
CCCCc1ccc(S(N)(=O)=Nc2c[nH]nc2-c2ccccc2)cc1 (stereo not drawn) [Compound 113]	5 to 100
N#Cc1cnc2[nH]cc(N=S(N)(=O)c3ccc(C(F)(F)F)cc3)c2c1 (stereo not drawn) [Compound 114]	5 to 100
N#Cc1ccc2[nH]cc(N=S(N)(=O)c3ccc(C4CC4)cc3)c2c1 (stereo not drawn) [Compound 115]	5 to 100
NS(=O)(=Nc1c[nH]c2ncc(F)cc12)c1ccc(C(F)(F)F)cc1 (stereo not drawn) [Compound 117]	5 to 100

Further lines, results first:

IC50 [µM]	Compound
5 to 100	N#Cc1ccc2[nH]cc(N=S(N)(=O)c3ccc(C(F)(F)F)cc3)c2c1 (racemic) [Compound 5a]
5 to 100	NS(=O)(=Nc1c[nH]c2ccccc12)c1ccc(F)cc1 (racemic) [Compound 108a]
1 to 5	NS(=O)(=Nc1c[nH]c2ccccc12)c1ccc(Cl)cc1 (racemic) [Compound 109a]
5 to 100	CCCCc1ccc(S(N)(=O)=Nc2c[nH]nc2-c2ccccc2)cc1 (racemic) [Compound 113a]
5 to 100	N#Cc1cnc2[nH]cc(N=S(N)(=O)c3ccc(C(F)(F)F)cc3)c2c1 (racemic) [Compound 114a]
5 to 100	N#Cc1ccc2[nH]cc(N=S(N)(=O)c3ccc(C4CC4)cc3)c2c1 (racemic) [Compound 115a]
5 to 100	NS(=O)(=Nc1c[nH]c2ncc(F)cc12)c1ccc(C(F)(F)F)cc1 (racemic) [Compound 117a]

same assay, conditions: Homo sapiens, THP1-Dual, 24 h, 15 μM 2'3'cGAMP, given as numeric bound

IC50 [µM]	Compound
≥ 100	N#Cc1cnc2[nH]cc(N=S(N)(=O)c3ccc(C(F)(F)F)cc3)c2c1 (racemic) [Compound 114b]
≥ 100	NS(=O)(=Nc1c[nH]nc1-c1ccccc1)c1ccc(C(F)(F)F)cc1 (racemic) [Compound 119a]
≥ 100	NS(=O)(=Nc1c[nH]nc1-c1ccccc1)c1ccc(C(F)(F)F)cc1 (stereo not drawn) [Compound 119]
